Key:
[1] = system: CD34^+38^−90^+ HSCs; assay: cell cycle analysis (Ki-67 / Hoechst) of HSCs; assay type: cell-based, human; details: 72 h, RV transduced cycling HSCs; MK-8776 1 μM, PV1019 1 μM, PGE2 10 μM, Birb 796 600 nM
[2] = system: human CD34^+ cells; assay: GFP marking in human grafts of NSG mice; assay type: in vivo; details: limiting dilution transplant; also long-termed secondary human grafts
Text: NOD.Cg-Prkdcscid Il2rgtm1Wjl/SzJ (NSG) mice were purchased from The Jackson Laboratory (Bar Harbor, Me.). All animals were bred and maintained in a specific pathogen-free environment and all experiments were approved by the Institutional Animal Care and Use (IACUC) Committee. Male and female NSG mice aged 8 to 14 weeks old were fed doxycycline chow (TestDiet; Modified Prolab RMH-1500 with 0.0625% doxycycline) a week prior to, during and for 2 weeks post irradiation. Human engraftment was analyzed in bone marrow (BM), via BM aspirates performed at 6 and 12 weeks from left and right femurs. After sacrifice at 24 weeks, marrow from all of the primary mice (1 T) was harvested. Peripheral blood analysis was also performed in some experiments. Secondary transplants (2 T) were performed after mouse CD45^+ cells were depleted from BM harvested from each 1 T mouse separately, using Biotin Rat Anti-Mouse CD45 (BD Biosciences 553078) and Streptavidin Particles Plus-DM (BD Biosciences 557812) and injected into one irradiated (280 cGy) secondary NSG mouse. […] Total ROS and mitochondrial specific ROS were detected using 10 μM CM-H2DCFDA (ThermoFisher Scientific C6827) and 5 μM MITOSOXTM Red (Red Mitochondrial Superoxide Indicator) (ThermoFisher Scientific M36008) respectively, following manufacturer's instructions.

[3] = system: γH2AX; assay: DNA damage response (γH2AX, 53BP1) by immunofluorescence and flow cytometry; assay type: cell-based, human; details: 72 h, RV transduced cycling HSCs
Protocol: For EdU incorporation assay, cells were incubated with 10 μM EdU throughout the culture period and the CLICK-IT® Plus EdU Pacific Blue Flow Cytometry Assay Kit (ThermoFisher Scientific C10636) was used for staining. […] Samples were run through a FACSCANTOTM, FORTESSATM, or LSR 2 flow cytometers (BD Biosciences), and the data was analyzed by […] software (BD). […] II cell sorter. FACS sorted CD34+38-90+ cells were fixed in 2% paraformaldehyde and permeabilized using 0.1% […] polyether alcohol, Sigma-Aldrich). […] Cells were counterstained and mounted with […]® antifade mounting medium with DAPI (H-1200 Vector Laboratories). Images were obtained using a Nikon 90i upright microscope.

[4] = system: human MPB derived CD34^+ cells; assay: multi-lineage reconstitution (myeloid / B-lymphoid) in bone marrow of NSG mice; assay type: in vivo; details: limiting dilution transplant, 42 h LV; 6 mo post 1 T
Text: NOD.Cg-Prkdcscid Il2rgtm1Wjl/SzJ (NSG) mice were purchased from The Jackson Laboratory (Bar Harbor, Me.). All animals were bred and maintained in a specific pathogen-free environment and all experiments were approved by the Institutional Animal Care and Use (IACUC) Committee. Male and female NSG mice aged 8 to 14 weeks old were fed doxycycline chow (TestDiet; Modified Prolab RMH-1500 with 0.0625% doxycycline) a week prior to, during and for 2 weeks post irradiation. Human engraftment was analyzed in bone marrow (BM), via BM aspirates performed at 6 and 12 weeks from left and right femurs. After sacrifice at 24 weeks, marrow from all of the primary mice (1 T) was harvested. Peripheral blood analysis was also performed in some experiments. Secondary transplants (2 T) were performed after mouse CD45^+ cells were depleted from BM harvested from each 1 T mouse separately, using Biotin Rat Anti-Mouse CD45 (BD Biosciences 553078) and Streptavidin Particles Plus-DM (BD Biosciences 557812) and injected into one irradiated (280 cGy) secondary NSG mouse. For calculating competitive repopulating units (CRU) from limiting dilution transplantation, the L-CALC^TM software (Stem Cell Technologies) was used. All of the mice used for this study were randomly assigned to a treatment group. No animals were excluded from the analysis. PE-Cyanine 7 or APC-EFLUOR® 780, APC- or PE-conjugated antibodies directed to human CD34 (BD Biosciences 560710 or 555824), CD38 (eBiosciences, San Diego, Calif. 47-0389-42), CD90 (BioLegend 328120), CD45RA (eBiosciences 17-0458-42), CD49f (BD Biosciences 555736), CD45 (BD 55485 or Biolegend 304026), CD33 (eBiosciences 25-0338-42), CD19 (BD Biosciences 557791), or CD3 (BD Biosciences 555340). Cells ( 5×10^5-1×10^6) were used to label with antibodies as per manufacturer instructions with the appropriate isotype controls. For phospho-flow, primary antibodies phospho-[…]), phospho-p44/42 MAPK (ERK 1⁄2) […]; […]), and phospho-JNK […] PE conjugate; […]) (all from Cell Signaling) were used for staining overnight followed by wash and secondary antibody stain including Goat anti-Rabbit IgG (H+L) or Goat anti-Rabbit IgG (H+L) or Pacific Blue (P-10994) antibody. Apoptosis assay was performed using PE Annexin V Apoptosis Detection Kit (BD Biosciences 559763) according to the manufacturer's instructions. Total ROS and mitochondrial specific ROS were detected using 10 μM CM-H2DCFDA (ThermoFisher Scientific C6827) and 5 μM MITOSOXTM Red (Red Mitochondrial Superoxide Indicator) (ThermoFisher Scientific M36008) respectively, following manufacturer's instructions.

[5] = system: HIF-1α; assay: HIF-1α staining in HSCs (immunofluorescence, flow cytometry); assay type: cell-based, human; details: 72 h, RV transduced CD34^+38^−90^+ cells
Text: FACS sorted CD34+38−90+ cells were fixed in 2% paraformaldehyde and permeabilized using 0.1% TRITON™ X-100 (Alkaryl polyether alcohol, Sigma-Aldrich). Cells were then stained with primary antibodies Anti-phospho-H2AX (Ser 139) (Millipore, 05-636), anti-53BP1 antibody (Novus Biologicals, NB100-904), or anti-HIF-1α (ab103063). For secondary antibodies, Alexa Fluor 594 conjugated Goat anti-Rabbit IgG (H+L) (A-11037) or, ALEXA FLUOR® 647 conjugated Goat anti-Rabbit IgG (H+L) (A-21245) (both from ThermoFisher Scientific) were used for 1 hour at 37° C. Cells were counterstained and mounted with […]® antifade mounting medium with DAPI (H-1200 Vector Laboratories). Images were obtained using a Nikon 90i upright microscope.

| SMILES | transduced HSCs accumulated in the G2M phase [1] | GFP marking [2] | γH2AX levels in the transduced HSCs [3] | lineage skewing [4] | HIF-1α levels in cycling transduced HSCs [5] |
| --- | --- | --- | --- | --- | --- |
| Cn1cc(-c2cnn3c(N)c(Br)c([C@@H]4CCCNC4)nc23)cn1 [Chk1i] | Fewer transduced-HSCs were found to accumulate in the G2M phase with Chk1i (albeit not statistically significant) | – | – | – | – |
| CCCCC(C)(C)[C@H](O)/C=C/[C@H]1[C@H](O)CC(=O)[C@@H]1C/C=C\CCCC(=O)O [PGE2, 16,16 dimethyl Prostaglandin E2] | tended to reduce | did not have any effect | no effect | sufficient to restore the lineage skewing | could be stabilized |

— US11518981B2, “Methods of enhancing engraftment activity of hematopoietic stem cells” (CHILDREN'S HOSPITAL MEDICAL CENTER, priority 2017, dated 2022)
